In patent publication US11465987B2, “Compounds for treatment of cancer” (ONCTERNAL THERAPEUTICS, INC., priority 2012, dated 2022):
Read-outs that look alike come from different tables or passages of the source.

Tests used:
CYP enzymes = assay: CYP enzyme inhibition assays
[1] = test system: melanoma and prostate cancer cell lines; assay: Antiproliferative activity summarised over the cell line panel (range or average); format: cell-based; details: read-out: IC50 range against prostate cancer cells, range over prostate cancer cell lines
[2] = test system: PPC-1 human prostate cancer cell line; assay: Cytotoxicity (SRB) assay, PPC-1; format: cell-based; details: Homo sapiens
Source text: (§1) Cells were stained with SRB solution.

[3] = Pharmacokinetic study in ICR mice; details: Mouse PK
[4] = test system: confluent HUVEC monolayers; assay: Endothelial monolayer permeability assay; details: FITC-dextran leakage, 1, 2, 4 h
[5] = Pharmacokinetic study in beagle dogs; details: Dog PK, PO 5 mg/kg
[6] = test system: tubulin (colchicine, vinblastine and paclitaxel binding sites); assay: MS competition binding assay; details: competitive mass binding assay
Source text: Each reaction was run in triplicate.

[7] = Pharmacokinetic study in Sprague-Dawley rats; details: Rat PK, PO 10 mg/kg
[8] = Permeability (drug-like properties)
[9] = test system: PC-3 human prostate cancer cell line; assay: cells; details: Homo sapiens
Source text: as §1

[10] = test system: LNCaP human prostate cancer cell line; assay: Cytotoxicity (SRB) assay, LNCaP; format: cell-based; details: Homo sapiens, LNCaP
Source text: as §1

PC-3_TxR xenograft = assay: In vivo PC-3/TxR xenograft; details: PC-3/TxR mice; 17ya […], 55 30 mg/kg
BCRP resistant cell line = assay: Cytotoxicity in BCRP-mediated resistant cell line; details: read-out: IC50 ± SEM, HEK293-482R2
MES-SA/DX5 cells = assay: Growth inhibition (SRB) assay, MES-SA/Dx5; format: cell-based; details: Homo sapiens, MES-SA/Dx5
[11] = test system: B16-F1 mouse melanoma cell line; assay: Cytotoxicity (SRB) assay, B16-F1; format: cell-based; details: Mus musculus
[12] = test system: A375 human melanoma cell line; assay: Cytotoxicity (SRB) assay, A375; format: cell-based; details: Homo sapiens
PC-3 xenograft = assay: In vivo PC-3 prostate tumor xenograft; details: PC-3, 0.5 mg/kg q2d, day 22
[13] = Rotarod test (in vivo neurotoxicity); parameters: species or system mouse; details: ICR mice, i.p. daily; 1h 5 or 15 mg/kg, vinblastine 0.5 mg/kg
Description: ICR mice received training three times a day for two days to enable them to stay on the rotating rod for >120 seconds at 12 rpm. Mice were then randomized by the length of time that they could stay on the rotating rod and divided into 7-8 mice per group. […] The rotarod test was performed twice a week. […] The rod speed was increased from […] to 40 rpm over a period of 5 min. Performance was measured as the length of time that a mouse could stay on the rotating rod.

HEK293-pcDNA3.1 cells = assay: Cytotoxicity assay, HEK293-pcDNA3.1 (parental line of the MRP/BCRP sublines); format: cell-based; details: Table 14B; parental cell line; read-out: IC50 ± SEM, HEK293-pcDNA3.1
[14] = test system: A375MA2 melanoma cell line; assay: Cytotoxicity assay, A375MA2; format: cell-based; details: Table 14B, n = 3; read-out: IC50 ± SEM, A375MA2
[15] = test system: DU 145 human prostate cancer cell line; assay: Cytotoxicity (SRB) assay, DU 145; format: cell-based; details: Homo sapiens
Source text: as §1

[16] = test system: MDA-MB-435/LCCMDR1 multidrug-resistant melanoma cells; assay: Cytotoxicity (SRB) assay, MDA-MB-435/LCCMDR1; format: cell-based
MES-SA cells = assay: Growth inhibition (SRB) assay, MES-SA; format: cell-based; details: Homo sapiens
[17] = test system: WM-164 human melanoma cell line; assay: Cytotoxicity (SRB) assay, WM-164; format: cell-based; details: Homo sapiens, n = 3, read-out: IC50 ± SEM, WM-164
[18] = test system: OVCAR-8 human ovarian cell line; assay: Cytotoxicity (SRB) assay, OVCAR-8; format: cell-based; details: Table 14B, parental cell line, read-out: IC50 ± SEM, OVCAR-8
[19] = test system: MDA-MB-435 parental nonresistant melanoma cells; assay: Cytotoxicity (SRB) assay, MDA-MB-435; format: cell-based; details: Homo sapiens
[20] = PPC-1, SRB assay, prostate cancer PPC-1, read-out: IC50 PPC-1
[21] = read-out: IC50 PC-3, SRB assay, prostate cancer PC-3
[22] = SRB assay, prostate cancer LNCaP, read-out: IC50 LNCaP

For COc1cc(C(=O)c2csc(Nc3ccc4[nH]ccc4c3)n2)cc(OC)c1OC [compound 55, (2-(1H-INDOL-5-YLAMINO)THIAZOL-4-YL)(3,4,5-TRIMETHOXYPHENYL)METHANONE], the “CYP enzyme inhibition in words” value (CYP enzymes) was “high IC50 values in micromolar range”, the IC50 [1] was 7.5 to 24.1 nM and the IC50 [2, 20] was 15 ± 1 nM. It also gave a t1/2 ([3]; IV 10 mg/kg) of 0.767 h, an F ([3]; PO 20 mg/kg) of 34% and a t1/2 ([3]; PO 20 mg/kg) of 2.1 h. For the same compound, the “permeability of endothelial cell monolayer in words” value [4] was “increased permeability”, the F [5] was 36% and the “competition for tubulin binding sites in words” value [6] was “competed effectively with colchicine”. The F [7] was 24%, the t1/2 [7] was 5.83 ± 3.57 h and the permeability in words [8] was “more than adequate permeability values”. For the same compound, the IC50 ([9]; 96 h, read-out: Cytotoxicity IC50, PC-3, Table 15, mean ± SD, 96 h treatment, N = 3) was 16 ± 1.5 nM, the IC50 [9, 21] was 12 ± 1 nM and the IC50 ([9]; read-out: IC50 in PC3, Table 16B) was 28 nM. The IC50 [10, 22] was 13 ± 1 nM and the “body weight in words” value (PC-3_TxR xenograft) was “gaining weight”.

In the case of CC[C@]1(O)C[C@@H]2CN(CCc3c([nH]c4ccccc34)[C@@](C(=O)OC)(c3cc4c(cc3OC)N(C)[C@H]3[C@@](O)(C(=O)OC)[C@H](OC(C)=O)[C@]5(CC)C=CCN6CC[C@]43[C@@H]65)C2)C1 [vinblastine, Vinblastine, reference compound], the IC50 (BCRP resistant cell line) is reported as 25 ± 1 nM, the IC50 [2, 20] is reported as […] and the IC50 ([2]; PPC-1, Table 7, read-out: IC50, PPC-1) is reported as […]. For the same compound, the IC50 (MES-SA/DX5 cells; SRB assay) was 16 nM, the IC50 (MES-SA/DX5 cells; Table 7, P-gp over-expressed) was 45.7 ± 5.3 nM and the IC50 ([11]; B16-F1, SRB assay, mouse melanoma B16-F1, read-out: IC50 B16-F1) was 4.7 nM. The IC50 ([11]; B16-F1, Table 14A, n = 3, read-out: IC50 ± SEM, B16-F1 (converted)) was 4.7 ± 0.7 nM, the IC50 ([11]; B16-F1, Table 14B, n = 3, read-out: IC50 ± SEM, B16-F1 (converted)) was 5 ± 1 nM and the IC50 ([11]; B16-F1, Table 21, n = 3, read-out: IC50 ± SEM, B16-F1 (converted)) was 4.7 ± 0.7 nM. The IC50 ([12]; A-375, SRB assay, human melanoma A375, read-out: IC50 A375) was 1 nM, the IC50 ([12]; A-375, Table 14A, n = 3, read-out: IC50 ± SEM, A375 (converted)) was […] and the IC50 ([12]; A-375, Table 14B, n = 3, read-out: IC50 ± SEM, A375 (converted)) was 1 ± 0.1 nM. The IC50 ([12]; A-375, Table 21, n = 3, read-out: IC50 ± SEM, A375 (converted)) was […], the “% T/C” value (PC-3 xenograft) was 29% and the “competition for tubulin binding sites in words” value [6] was “did not inhibit the colchicine-tubulin binding”. The “rotarod performance in words” value [13] was “gradually reduced the time”, the IC50 (HEK293-pcDNA3.1 cells) was 5 ± 0.1 nM and the IC50 [14] was 1 ± 0.2 nM. The IC50 ([15]; DU-145, SRB assay, prostate cancer DU 145, read-out: IC50 DU 145) was 1.8 nM, the IC50 ([15]; DU-145, Table 7, read-out: IC50, DU-145) was 2.6 ± 1 nM and the IC50 ([15]; DU-145, Table 21, n = 3, read-out: IC50 ± SEM, Du-145) was 1.8 ± 1.1 nM. The IC50 ([16]; Homo sapiens, MDA-MB-435/LCCMDR1, read-out: IC50 MDR melanoma cell line) was 277 to 658 nM, the “P-gp substrate / multidrug resistance in words” value ([16]; MDR melanoma line vs sensitive parent line) was “substrates for P-glycoprotein (P-gp)” and the IC50 (MES-SA cells; SRB assay) was 1.4 nM. For the same compound, the IC50 (MES-SA cells; Table 7, parental line) was 2.3 ± 0.8 nM, the IC50 ([9]; read-out: IC50, PC-3, Table 7) was 1.4 ± 0.3 nM and the IC50 [9, 21] was 2.1 nM. The IC50 ([9]; read-out: IC50 ± SEM, PC-3, Table 21, n = 3) was 2.1 ± 0.2 nM, the IC50 ([17]; WM164, Table 14A) was 0.6 ± 0.1 nM and the IC50 ([17]; WM164, Table 14B) was 0.6 ± 0.1 nM. For the same compound, the IC50 [10, 22] was […], the IC50 ([10]; Table 7, read-out: IC50, LNCaP) was 3.4 ± 0.9 nM and the IC50 ([10]; Table 21, n = 3, read-out: IC50 ± SEM, LNCaP (converted)) was […]. It also gave an IC50 [18] of 2 ± 0.1 nM, an IC50 ([19]; Table 14A, sensitive parent cell line, read-out: IC50 ± SEM, MDA-MB-435 (converted)) of 0.4 ± 0.1 nM and an IC50 ([19]; read-out: IC50 nonresistant melanoma cell line) of 0.5 to 10 nM.
